“And” between values parts separate entries of the source, which are not always exact repeats. Identical values can stand only once.
Test system: T. gondii ME49 bradyzoites
Assay: Real-time PCR on ileum cDNA of infected Z-DNA binding protein knock out mice
Type: in vivo, Toxoplasma gondii
Settings: homogenized mouse ileum cDNA
Protocol: Delta-6-desaturase inhibition. SC 26196 (Cayman) was solubilized in DMSO and used at 20 μM in mouse organoid monolayers. For in vivo treatment, the inhibitor was solubilized in 0.5% m/v methylcellulose and the mice were given 50 mg/kg every 12 hours by oral gavage (He et al., 2012). 4-week old C57BL/6J female mice deleted in Z-DNA-binding protein (Pittman et al., 2016) were divided into four different groups: uninfected control, T. gondii-infected without fatty acid supplementation, T. gondii infected with linoleic acid supplementation, and T. gondii-infected with linoleic acid and SC 26196 inhibitor. Each mouse supplemented with linoleic acid received 10 μL of 99% linoleic acid oil (MilliporaSigma Cat #843483) suspended in 0.5% Methylcellulose per day by oral gavage. Mice were infected with 1000 brain cysts purified as described above by oral gavage and euthanized 7 days post infection. Sample size was at least 2 mice per group and the experiment was repeated 5 times. Alternatively, each mouse was infected with one mouse brain at least 2 months postinfection with at least 1000 cysts. Mice were treated with SC 26196 until day 5 postinfection. Feces were collected from days 5-14 and oocysts enumerated by microscopy.
Real-time PCR on ileum cDNA. Z-DNA binding protein deletion mice ice with and without delta-6-desaturase inhibitor treatment were euthanized 7 days post infection. The ileum of each mouse was removed and homogenized in 1 mL of TRIzol. Total RNA was isolated according to manufacturer's protocol (Invitrogen) and treated with amplification grade Dnase I. cDNA was generated using the Invitrogen SuperScript III First-Strand Synthesis kit with random hexamer primers. GRA11B and SAG1 were used as markers of sexual and asexual stages, respectively. The T. gondii housekeeping gene TUB1A was used to normalize target gene expression. Real-time quantitative PCR was performed using Bio-Rad iTaq Universal SYBR Green Supermix on 311 an Applied Biosystems StepOnePlus Real-Time PCR system. The efficiency of each primer set was calculated from the slope of a 1:10 dilution standard curve of tachyzoite gDNA, where E=10^(−1/slope). The Pfaffl method (Pfaffl, 2001), which accounts for differences in efficiencies, was then used to calculate the relative gene expression of GRA11B and SAG1 per sample, in triplicate. Only wells with one melt curve temperature were used, indicating a single product. Primer sequences were as follows:
Statistical methods. All real-time PCR fecal samples were run in triplicate technical replicates. The difference between the mean target gene copy numbers was analyzed by two-tailed unpaired t tests. The real-time PCR intestinal samples were run in triplicate from two biological replicates per group. The difference between the mean relative expression of each target gene was analyzed by two-tailed unpaired t tests.

[1] = 7 days post infection, Mouse 1 and Mouse 2, wells 1-3

Compound: CCCCC/C=C\C/C=C\CCCCCCCC(=O)O [linoleic acid]
- GRA11B raw Ct values [1]: 33.43 and 36.02 and 35.59 and 38.24 and 39.05
- SAG1 raw Ct values [1]: 32.63 and 31.52 and 32.31 and 31.46 and 32.97 and 31.72
- GRA11B Ct mean (Mouse 1 and Mouse 2): 37.13 and 36.02
- SAG1 Ct mean (Mouse 1 and Mouse 2): 32.63 and 31.57
